The record followed here is patent publication US20090275099A1 (priority 2004, published 2009).

For data set [1], the system named is human skin in organ culture. Briefly: RA-induced epidermal hyperplasia in human skin organ culture. The conditions noted are these: RA-exposed skin, Bz-423 5 μg/ml. The text has this: Replicate 2 mm full-thickness punch biopsies of sun-protected hip skin were obtained from young adult volunteers. The participation of human subjects in this project was approved by the University of Michigan Institutional Review Board, and all subjects provided written informed-consent prior to their inclusion in the study. Immediately upon biopsy, the tissue was immersed in culture medium consisting of Keratinocyte Basal Medium (KBM) (Cambrex Bioscience, Walkersville, Md.). KBM is a low-Ca^2+, serum-free modification of MCDB-153 medium optimized for high-density keratinocyte growth. It was supplemented with CaCl2 to bring the final Ca^2+ concentration to 1.4 mM. After transport to the laboratory on ice, the biopsies were incubated in a 24-well dish containing 250 μl of Ca^2+-supplemented KBM with or without additional treatments (e.g., RA and/or Bz-423). Cultures were incubated at 37° C. in an atmosphere of 95% air and 5% CO2. Other than to maintain the tissue in a minimal volume of medium, nothing further was done to ensure a strict air-liquid interface. Incubation was for 8 days, with change of medium and fresh treatments every second day. […] Average thickness values for untreated, retinoid exposed, and retinoid plus Bz-423-treated biopsies were determined. […]

The next data set concerns Ramos cells. Description: cell culture cytotoxicity assays. The class given is cell-based, human. The conditions noted are these: 10% FBS. As for the experimental part:
Like most 1,4-benzodiazepines, Bz-423 binds strongly to bovine serum albumin (BSA), which reduces the effective concentration of drug free in solution. For example, in tissue culture media containing 10% (v/v) fetal bovine serum (FBS), ca. 99% of the drug is bound to BSA. Therefore, cell culture cytotoxicity assays are conducted in media with 2% FBS to reduce binding to BSA and increase the free [Bz-423]. Under these conditions, the dose response-curve is quite sharp such that there is a limited concentration range at which Bz-423 is only partly effective. Since some benzodiazepines are known to have anti-proliferative properties, the effect of Bz-423 at concentrations <ED50 were carefully analyzed and observed that in addition to inducing apoptosis, Bz-423 prevented cell growth after 3 d in culture. In these low serum conditions, the cytotoxic and anti-proliferative effects overlapped making it difficult to study each effect independently. […] While higher amounts of drug may also block proliferation, it caused apoptosis well before the effects on proliferation could be observed.
To confirm the decrease in cell number relative to control cells after 3 d of treatment is due to decreased proliferation and not cell death balanced by proliferation, in addition to cell counting, cell divisions were studied. PKH-67 is a fluorescent probe that binds irreversibly to cell membranes and upon cell division is partitioned equally between the daughter cells, making it possible to quantify cell division by flow cytometry. Ramos cells stained with PKH67 and treated with Bz-423 had fewer cell divisions at sub-cytotoxic concentrations which confirmed that the decrease in cell number was due to anti-proliferative affects and not cell death. To determine if Bz-423 induced anti-proliferation was specific to Ramos cells, cell counting and cell cycle experiments were done in other B cell lines and cell lines derived from solid tumors.

A further data set concerns the target T1, human OSCP (Homo sapiens, UniProt P48047).
T1 construct: made in house; host or cells: E. coli
Description: OSCP binding by quenching of intrinsic protein fluorescence. From the text:
To determine if Bz-423 indeed binds to the OSCP and the affinity of the interaction, human OSCP was overexpressed in E. coli. […] Bz-423 is the only known inhibitor of the ATPase that functions through binding to the OSCP.

Data set [2] concerns the target mitochondrial F1F0-ATPase (Bos taurus, UniProt P13621+P32876). Briefly: biochemical. More on the design: species or system bovine. As to conditions: for EC50: bovine SMPs.
Another data set concerns Jurkat cells. Description: early O2− (ROS) response, 1 h. The class given is cell-based. The conditions noted are these: Homo sapiens, Jurkat, 1 h, read-out: ROS EC50 (μM), Jurkat cells. As for the experimental part: To detect O2^−, cells are incubated with DHE (10 μM) for 30 min at 37° C. and are analyzed by flow cytometry to measure ethidium fluorescence. Flow analysis of mitochondrial transmembrane potential (ψm) is conducted by labeling cells with DiOC6(3) (20 nM) for 15 min at 37 degrees C. A positive control for disruption of ψm is established using carbonyl cyanide m-chlorophenylhydrazone (CCCP, 50 μM). Caspase activation assays are performed with FAM-VAD-fluoromethylketone. Processing of the substrate is evaluated by flow cytometry.
Since an early mitochondrial superoxide (O2^−) mediates apoptosis induced by Bz-423, the O2^− response of cells 1 h following incubation with drug was examined, as well as cell death at 24 h, as previously described (see, e.g., Blatt, N. B., et al., 2002 J Clin Invest 110, 1123-1132; incorporated herein by reference in its entirety).

Another data set deals with F1F0-ATPase (Homo sapiens, UniProt P05496+P48047). Description: inhibition of the F1F0-ATPase (potencies stated in the description). The data set is classed as biochemical.

T1 sequence (P48047 24-213): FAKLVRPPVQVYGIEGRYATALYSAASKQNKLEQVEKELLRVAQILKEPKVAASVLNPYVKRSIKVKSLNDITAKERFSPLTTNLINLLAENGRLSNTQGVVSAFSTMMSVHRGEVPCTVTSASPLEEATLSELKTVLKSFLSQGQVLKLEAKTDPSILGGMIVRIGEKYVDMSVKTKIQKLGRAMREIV

Usually Kd stands for a measure of binding affinity in units of concentration. A lower Kd goes with a tighter complex. The Ki is a measure of affinity in units of concentration, obtained from inhibition or displacement. What is called EC50 is the concentration needed to bring the measured effect to its halfway point. Consider `CN1C(=O)C(Cc2ccc3ccccc3c2)N=C(c2ccc(O)cc2)c2cc(Cl)ccc21` (stereo not drawn) [Bz-423], for which the “histologic finding at high concentration” value in data set [1] is “necrosis was observed”. Moreover, the “amounts of drug with minimal cytotoxicity” value with Ramos cells lay within 10 to 15 µM. The “concentrations at which only apoptosis was observed” value in the data set with Ramos cells is > 20 µM. This molecule displayed a Kd on human OSCP of 0.2 ± 0.04 µM. Besides, the Ki in data set [2] is 11 ± 0.4 µM; on F1F0-ATPase, ~9 µM. Besides, the EC50 is 8.9 µM in data set [2] (ATPase activity EC50 (μM), Hydrolysis); ~5 µM in data set [2] (ED 50, inhibition of mitochondrial ATPase activity); 10 µM in the data set on Jurkat cells.
